Seven compounds from PubChem BioAssay AID449774 (The Scripps Research Institute Molecular Screening Center, 2010) can be followed below.

By MIC is commonly meant the smallest concentration in the dilution series that meets the test's criterion for growth inhibition.

Structures are written as SMILES. ≈ marks a conversion by molar mass, not a printed value.

This assay has as its system wildtype E. coli growth inhibition, MIC. In words: minimum inhibitory concentration in E. coli – MIC, dose response, counter-screen for IMP-1/VIM-2 inhibitor project, late-stage follow-up (AID 449774). A general note: Counterscreens check selectivity or assay interference.
Take `C[C@@H](O)[C@H]1C(=O)N2C(C(=O)O)=C(SCCN=CN)C[C@H]12`: the MIC was 0.78 µM (≈ 0.233 µg/mL).
To `Cc1cc[c]([Hg+])cc1` belongs 1.56 µM; to `CC(=O)Nc1cc[c]([Hg+])cc1`, 1.56 µM.
As for `O=C(O)c1cc[c]([Hg][Cl])cc1`, the MIC is 12.5 µM.
To `[Hg+][c]1ccccc1` belongs 0.39 µM; to `COc1cccc[c]1[Hg+]`, 0.78 µM; to `O=C(O)c1ccc[c]([Hg+])c1`, 3.13 µM.
